Experimental data as given in ChEMBL document CHEMBL5365531, “Structure-Activity Relationship Studies of SARS-CoV-2 Main Protease Inhibitors Containing 4-Fluorobenzothiazole-2-carbonyl Moieties” (J Med Chem, 2023).

Key:
[1] = Mutagenicity in Salmonella typhimurium TA1537 assessed as inhibition of bacterial growth at 0.152 to 333 ug incubated in presence of S9 fraction by micro-Ames test; type: toxicity, subcellular, Salmonella enterica subsp. enterica serovar Typhimurium; details: dose 0.152-333 µg
MOLT-4 = assay: Cytotoxicity against human MOLT-4 cells assessed as reduction in cell viability at 3 uM incubated for 12 days by CCK-8 assay; type: toxicity, cell-based; details: molt-4, 288 h, time 12 day
[2] = Mutagenicity in Salmonella typhimurium TA1535 assessed as fold increase in number of revertants at 0.152 to 333 ug incubated in presence of S9 fraction by micro-Ames test relative to control; type: toxicity, subcellular, Salmonella enterica subsp. enterica serovar Typhimurium; details: dose 0.152-333 µg
[3] = Stability of compound in 50% MeCN in H2O incubated for 24 hrs at room temperature by RP-HPLC analysis; type: physicochemical
SARS-CoV-2 [4] = assay: Antiviral activity against SARS-CoV-2 JPN/TY/WK-521 infected in Vero E6 cells assessed as fold change preincubated with cells for 1 day followed by viral infection and measured after 3 days by qRT-PCR analysis relative to TKB245; type: functional, Severe acute respiratory syndrome coronavirus 2; details: time 4 day
[5] = Mutagenicity in Salmonella typhimurium TA100 assessed as fold increase in number of revertants at 0.152 to 333 ug incubated in absence of S9 fraction by micro-Ames test relative to control; type: toxicity, Salmonella enterica subsp. enterica serovar Typhimurium; details: in vivo; dose 0.152-333 µg
[6] = Mutagenicity in Salmonella typhimurium TA98 assessed as fold increase in number of revertants at 0.152 to 333 ug incubated in absence of S9 fraction by micro-Ames test relative to control; type: toxicity, Salmonella enterica subsp. enterica serovar Typhimurium; details: in vivo; dose 0.152-333 µg
[7] = Oral bioavailability in PXB mouse at 10 mg/kg measured for 24 hrs; type: ADME, organism-based; details: in vivo
[8] = Mutagenicity in Salmonella typhimurium TA1535 assessed as fold increase in number of revertants at 0.152 to 333 ug incubated in absence of S9 fraction by micro-Ames test relative to control; type: toxicity, Salmonella enterica subsp. enterica serovar Typhimurium; details: in vivo; dose 0.152-333 µg
[9] = Mutagenicity in Escherichia coli WP2uvrA assessed as inhibition of bacterial growth at 0.152 to 333 ug incubated in absence of S9 fraction by micro-Ames test; type: toxicity; details: in vivo; dose 0.152-333 µg
SARS-CoV-2 [10] = assay: Antiviral activity against SARS-CoV-2 assessed as fold change relative to YH-53; type: functional, Severe acute respiratory syndrome coronavirus 2
Vero C1008 = assay: Cytotoxicity against African green monkey Vero E6 cells infected with SARS-CoV-2 WK-521 upto 100 uM incubated for 3 days by immunostaining analysis; type: toxicity, cell-based; details: chlorocebus sabaeus, vero c1008, 72 h, time 3 day
[11] = Mutagenicity in Salmonella typhimurium TA1535 assessed as inhibition of bacterial growth at 0.152 to 333 ug incubated in presence of S9 fraction by micro-Ames test; type: toxicity, subcellular, Salmonella enterica subsp. enterica serovar Typhimurium; details: dose 0.152-333 µg
[12] = Cytotoxicity against human A549-hACE2-TMPRSS2 cells; type: toxicity, cell-based
[13] = Mutagenicity in Salmonella typhimurium TA100 assessed as fold increase in number of revertants at 0.152 to 333 ug incubated in presence of S9 fraction by micro-Ames test relative to control; type: toxicity, subcellular, Salmonella enterica subsp. enterica serovar Typhimurium; details: dose 0.152-333 µg
[14] = Mutagenicity in Salmonella typhimurium TA98 assessed as inhibition of bacterial growth at 0.152 to 333 ug incubated in presence of S9 fraction by micro-Ames test; type: toxicity, subcellular, Salmonella enterica subsp. enterica serovar Typhimurium; details: dose 0.152-333 µg
SARS-CoV-2 [15] = assay: Antiviral activity against SARS-CoV-2 infected in Vero E6 cells preincubated with cells for 1 day in presence of HCl treated compound followed by viral infection and measured after 3 days by qRT-PCR analysis; type: functional, organism-based; details: Severe acute respiratory syndrome coronavirus 2, Vero C1008
[16] = Mutagenicity in Salmonella typhimurium TA1535 assessed as inhibition of bacterial growth at 0.152 to 333 ug incubated in absence of S9 fraction by micro-Ames test; type: toxicity, Salmonella enterica subsp. enterica serovar Typhimurium; details: in vivo; dose 0.152-333 µg
[17] = Mutagenicity in Salmonella typhimurium TA1537 assessed as inhibition of bacterial growth at 0.152 to 333 ug incubated in absence of S9 fraction by micro-Ames test; type: toxicity, Salmonella enterica subsp. enterica serovar Typhimurium; details: in vivo; dose 0.152-333 µg
SARS-CoV-2 [18] = assay: Antiviral activity against SARS-CoV-2 hCoV-19/Japan/TKYS02037/2022 (omicron BA.2) infected in Vero E6 cells preincubated with cells for 1 day followed by viral infection and measured after 3 days by qRT-PCR analysis; type: functional, organism-based; details: Severe acute respiratory syndrome coronavirus 2, hCoV-19/Japan/TKYS02037/2022 (omicron BA.2), Vero C1008
[19] = Cytotoxicity against African green monkey Vero E6 cells in presence of P-glycoprotein inhibitor, CP100356; type: toxicity, cell-based, Vero C1008; details: chlorocebus sabaeus, with CP100356 (P-glycoprotein inhibitor)
[20] = Mutagenicity in Escherichia coli WP2uvrA assessed as fold increase in number of revertants at 0.152 to 333 ug incubated in absence of S9 fraction by micro-Ames test relative to control; type: toxicity; details: in vivo; dose 0.152-333 µg
[21] = Mutagenicity in Salmonella typhimurium TA98 assessed as inhibition of bacterial growth at 0.152 to 333 ug incubated in absence of S9 fraction by micro-Ames test; type: toxicity, Salmonella enterica subsp. enterica serovar Typhimurium; details: in vivo; dose 0.152-333 µg
[22] = Cytotoxicity against human HepG2 cells; type: toxicity, cell-based
[23] = Stability of compound in DMSO incubated for 7 days at -18 degreeC by RP-HPLC analysis; type: physicochemical; details: 168 h; time 7 day
[24] = Cytotoxicity against human HeLa cells expressing ACE2 and TMPRSS2; type: toxicity, cell-based
[25] = Stability of compound in 50% MeCN in H2O containing 0.05% trifluoroacetic acid assessed as (1R,2S,5S)-3-((S)-3,3-dimethyl-2-(2,2,2-trifluoroacetamido)butanoyl)-N-((S)-1-(4-fluorobenzo[d]thiazol-2-yl)-1-oxo-3-((S)-2-oxopyrrolidin-3-yl)propan-2-yl)-6,6-dimethyl-3-azabicyclo[3.1.0]hexane-2-carboxamide formation at 5 degreeC measured after 24 hrs by RP-HPLC analysis; type: physicochemical
[26] = Mutagenicity in Salmonella typhimurium TA1537 assessed as fold increase in number of revertants at 0.152 to 333 ug incubated in absence of S9 fraction by micro-Ames test relative to control; type: toxicity, Salmonella enterica subsp. enterica serovar Typhimurium; details: in vivo; dose 0.152-333 µg
SARS-CoV-2 [27] = assay: Antiviral activity against SARS-CoV-2 JPN/TY/WK-521 infected in Vero E6 cells assessed as inhibition of viral replication preincubated with cells for 1 day followed by viral infection and measured after 3 to 4 days by qRT-PCR analysis; type: functional, organism-based; details: Severe acute respiratory syndrome coronavirus 2, JPN/TY/WK-521, Vero C1008
[28] = Mutagenicity in Escherichia coli WP2uvrA assessed as fold increase in number of revertants at 0.152 to 333 ug incubated in presence of S9 fraction by micro-Ames test relative to control; type: toxicity, subcellular; details: dose 0.152-333 µg
[29] = target: Replicase polyprotein 1ab (Severe acute respiratory syndrome coronavirus 2, UniProt P0DTD1); assay: Inhibition of untagged SARS-CoV-2 JPN/TY/WK-521 Main protease using FRET-based UIVT3 as substrate by continuous fluorescence assay
[30] = Mutagenicity in Salmonella typhimurium TA100 assessed as inhibition of bacterial growth at 0.152 to 333 ug incubated in presence of S9 fraction by micro-Ames test; type: toxicity, subcellular, Salmonella enterica subsp. enterica serovar Typhimurium; details: dose 0.152-333 µg
[31] = Mutagenicity in Salmonella typhimurium TA98 assessed as fold increase in number of revertants at 0.152 to 333 ug incubated in presence of S9 fraction by micro-Ames test relative to control; type: toxicity, subcellular, Salmonella enterica subsp. enterica serovar Typhimurium; details: dose 0.152-333 µg
PBMC = assay: Cytotoxicity against human PBMC cells assessed as reduction in cell viability at 3 uM incubated for 12 days by CCK-8 assay; type: toxicity, cell-based; details: 288 h, time 12 day
SARS-CoV-2 [32] = assay: Antiviral activity against SARS-CoV-2 infected in Vero E6 cells preincubated with cells for 1 day in absence of HCl followed by viral infection and measured after 3 days by qRT-PCR analysis; type: functional, organism-based; details: Severe acute respiratory syndrome coronavirus 2, Vero C1008
[33] = Mutagenicity in Escherichia coli WP2uvrA assessed as inhibition of bacterial growth at 0.152 to 333 ug incubated in presence of S9 fraction by micro-Ames test; type: toxicity, subcellular; details: dose 0.152-333 µg
SARS-CoV-2 [34] = assay: Antiviral activity against SARS-CoV-2 JPN/TY/WK-521 infected in Vero E6 cells preincubated with cells for 1 day followed by viral infection and measured after 3 days by qRT-PCR analysis; type: functional, organism-based; details: Severe acute respiratory syndrome coronavirus 2, JPN/TY/WK-521, Vero C1008
[35] = Cytotoxicity against African green monkey Vero E6 cells incubated for 3 days by WST-8 assay; type: toxicity, cell-based, Vero C1008; details: chlorocebus sabaeus, time 3 day
[36] = Mutagenicity in Salmonella typhimurium TA100 assessed as inhibition of bacterial growth at 0.152 to 333 ug incubated in absence of S9 fraction by micro-Ames test; type: toxicity, Salmonella enterica subsp. enterica serovar Typhimurium; details: in vivo; dose 0.152-333 µg
[37] = Mutagenicity in Salmonella typhimurium TA1537 assessed as fold increase in number of revertants at 0.152 to 333 ug incubated in presence of S9 fraction by micro-Ames test relative to control; type: toxicity, subcellular, Salmonella enterica subsp. enterica serovar Typhimurium; details: dose 0.152-333 µg
MT2 = assay: Cytotoxicity against human MT2 cells assessed as reduction in cell viability at 3 uM incubated for 12 days by CCK-8 assay; type: toxicity, cell-based; details: mt2, 288 h, time 12 day

CC(C)(C)[C@H](NC(=O)C(F)(F)F)C(=O)N1C[C@H]2[C@@H]([C@H]1C(=S)N[C@@H](C[C@@H]1CCNC1=O)C(=O)c1nc3c(F)cccc3s1)C2(C)C
Activity [1]: Non-Toxic | Activity (MOLT-4): Non-Toxic | fold change (FC) [2]: > 2 | Stability [3]: Stable | fold change (FC) (SARS-CoV-2 [4]): 11 | fold change (FC) [5]: > 2 | fold change (FC) [6]: > 2 | bioavailability [7]: 72% | fold change (FC) [8]: > 2 | Activity [9]: Non-Toxic | fold change (FC) (SARS-CoV-2 [10]): 0.085 | Activity (Vero C1008): Non-Toxic | Activity [11]: Non-Toxic | CC50 [12]: > 100 µM | fold change (FC) [13]: > 2 | Activity [14]: Non-Toxic | EC50 (SARS-CoV-2 [15]): 0.32 µM | Activity [16]: Non-Toxic | Activity [17]: Non-Toxic | EC50 (SARS-CoV-2 [18]): 0.16 µM | CC50 [19]: > 100 µM | fold change (FC) [20]: > 2 | Activity [21]: Non-Toxic | CC50 [22]: > 200 µM | Stability [23]: Stable | CC50 [24]: > 100 µM | Stability [25]: Unstable | fold change (FC) [26]: > 2 | EC50 (SARS-CoV-2 [27]): 0.22 µM | fold change (FC) [28]: > 2 | IC50 [29]: 0.088 µM | Activity [30]: Non-Toxic | fold change (FC) [31]: > 2 | Activity (PBMC): Non-Toxic | EC50 (SARS-CoV-2 [32]): 0.31 µM | Activity [33]: Non-Toxic | EC50 (SARS-CoV-2 [34]): 0.31 µM | CC50 at 72 h [35]: > 100 µM | Activity [36]: Non-Toxic | fold change (FC) [37]: > 2 | Activity (MT2): Non-Toxic
